According to patent US10189809B2, “SGC stimulators” (Ironwood Pharmaceuticals, Inc., priority 2010, dated 2019):
pEC50: −log10 of the molar value. Where two headings read alike, the source gives them in different places.

Legend:
[1] = biological target: T1, Human soluble guanylate cyclase enzyme (hsGC) (Homo sapiens (Human), UniProt Q02108+Q02153); assay: Purified human sGC enzyme synergy assay in the presence of 1 μM sodium nitroprusside (SNP); format: biochemical; conditions: for sGC Enzyme (fold increase at 10 μM with SNP): 10 μM compound; for sGC Enzyme (fold increase at 30 μM with SNP): 30 μM compound
Protocol: Human soluble guanylate cyclase enzyme (hsGC) obtained from Enzo Inc. (P/N: ALX-201-177) was used to evaluate the activity of test compounds. The assay reactions contained 0.1 M Tris (pH 8.0), 0.5 mg/mL BSA (pH 8.0), 2 mM DTT, 2 mM MgCl2, 300 μM GTP, 1 mM 3-isobutyl-1-methylxanthine (IBMX) and 5 ng human soluble guanylate cyclase enzyme. Test compounds in DMSO were then added (2 μL, 10 or 30 μM final concentration) and incubated (200 μL, 96-well plate format) at 37° C. for 30 minutes. The controls were carried out using 2 μL DMSO. After the 30 minute incubation, the reaction was stopped with the addition of 200 μL of cold methanol. The plate was then centrifuged at 3,200 rpm for 10 minutes at room temperature. Supernatants (200 μL) were collected and transferred to a new 96 well plate for analysis.
An 8 point cGMP (Sigma-Aldrich P/N: G6129) standard curve was prepared in assay buffer ranging from 0.156-20 μM. Samples for the cGMP standard curve were then diluted with an equal volume of methanol resulting in final cGMP concentrations of 0.078-10 μM.
The cGMP standard curve was generated using GraphPad Prism Software.
Calculations: Specific Activity was determined by the amount of cGMP formed (nmoles) per mg of sGC per min. Enzyme “fold-change” was calculated by dividing Specific Activity for test compounds by Specific Activity of DMSO controls.
Enzyme assays were performed as described above, but was done in the presence of 1 μM sodium nitroprusside (SNP).

[2] = biological target: T1, Human soluble guanylate cyclase enzyme (hsGC); assay: Purified human sGC enzyme activity assay; format: biochemical; conditions: for sGC Enzyme (specific activity at 10 μM) / sGC Enzyme (fold increase at 10 μM without SNP): 10 μM compound
Outline: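 Values are fold-change of sGC specific activity, nmoles cGMP per mg enzyme per min, relative to DMSO controls. Reactions: 5 ng human enzyme, 300 μM GTP, 1 mM IBMX, 2 mM MgCl2/DTT, 0.1 M Tris pH 8.0, compound 10 or 30 μM final, 37° C for 30 minutes, methanol quench. cGMP read against a 0.078-10 μM final standard curve.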

[3] = biological target: T2, soluble guanylate cyclase (sGC) (Homo sapiens (Human), UniProt Q02108+Q02153); assay: sGC-HEK-cGMP assay run in the absence of SNP (HEK WC assay); format: cell-based; conditions: compound at 30 μM, absence of SNP
Outline: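 Intracellular cGMP was measured by LC/MS, using a standard curve, in HEK293 cells treated with compound for 10 min at 37° C after a 15 min 0.5 mM IBMX pretreatment, with no SNP present. Lysis and quench used 0.1 M HCl. EC50 values came from concentration-response fits.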

Thoracic aortic rings = assay: Alternative thoracic aortic rings assay (Example 19b; resting tension as 100% inhibition); design: species or system rat; conditions: Rattus norvegicus, Table 10B; for inhibition at 1 µM: read-out: Percent Relaxation at 1 μM; for inhibition at 3 µM: read-out: Percent Relaxation at 3 μM; for inhibition at 10 µM: read-out: Percent Relaxation at 10 μM; for pEC50: read-out: Aortic Ring EC50
Outline: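 EC50 values come from cumulative concentration-response relaxation of phenylephrine (100 ng/mL)-contracted thoracic aortic rings from 275-299 g male Sprague-Dawley rats. Rings were equilibrated at 1.0 g tension in oxygenated Krebs-Henseleit at 37 °C, with compounds given in DMSO and tension measured isometrically.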

[4] = biological target: T2, soluble guanylate cyclase (sGC); assay: sGC-HEK-cGMP assay run with SNP incubation (HEK WC assay); format: cell-based; conditions: for HEK WC Assay (fold increase at 30 μM in the presence of 10 μM SNP): compound at 30 μM; for pEC50: in the presence of 10 uM SNP
Outline: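 EC50 values derive from concentration-response curves of intracellular cGMP in HEK293 cells, which express sGC endogenously. Compound and sodium nitroprusside were co-incubated 10 min at 37 °C after a 15-min 0.5 mM IBMX step, with 0.1 M HCl lysis and 1% DMSO vehicle.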

[5] = read-out: HEK WC Assay (% Emax at 1 μM with 10 uM SNP)
[6] = read-out: HEK WC Assay (% Emax at 10 μM with 10 uM SNP)
[7] = read-out: HEK WC Assay (% Emax at 30 μM with 10 uM SNP)

T1 sequence (Q02153 whole entry): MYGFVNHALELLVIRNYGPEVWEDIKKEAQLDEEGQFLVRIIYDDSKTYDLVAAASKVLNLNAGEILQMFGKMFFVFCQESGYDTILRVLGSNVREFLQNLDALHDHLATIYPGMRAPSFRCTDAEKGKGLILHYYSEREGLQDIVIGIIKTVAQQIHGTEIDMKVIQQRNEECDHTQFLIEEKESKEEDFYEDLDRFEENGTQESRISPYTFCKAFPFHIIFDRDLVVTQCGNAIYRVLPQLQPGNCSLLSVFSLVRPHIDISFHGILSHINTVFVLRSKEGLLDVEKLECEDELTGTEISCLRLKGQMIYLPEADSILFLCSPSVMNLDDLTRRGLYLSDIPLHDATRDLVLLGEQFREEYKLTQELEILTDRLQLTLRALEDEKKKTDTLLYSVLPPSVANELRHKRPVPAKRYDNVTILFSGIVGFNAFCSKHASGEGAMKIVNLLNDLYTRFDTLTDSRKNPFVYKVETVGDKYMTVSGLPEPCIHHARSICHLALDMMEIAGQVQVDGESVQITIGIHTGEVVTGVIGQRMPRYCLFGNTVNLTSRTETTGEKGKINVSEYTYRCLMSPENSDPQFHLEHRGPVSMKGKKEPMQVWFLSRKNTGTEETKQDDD
T1 sequence (Q02108 whole entry): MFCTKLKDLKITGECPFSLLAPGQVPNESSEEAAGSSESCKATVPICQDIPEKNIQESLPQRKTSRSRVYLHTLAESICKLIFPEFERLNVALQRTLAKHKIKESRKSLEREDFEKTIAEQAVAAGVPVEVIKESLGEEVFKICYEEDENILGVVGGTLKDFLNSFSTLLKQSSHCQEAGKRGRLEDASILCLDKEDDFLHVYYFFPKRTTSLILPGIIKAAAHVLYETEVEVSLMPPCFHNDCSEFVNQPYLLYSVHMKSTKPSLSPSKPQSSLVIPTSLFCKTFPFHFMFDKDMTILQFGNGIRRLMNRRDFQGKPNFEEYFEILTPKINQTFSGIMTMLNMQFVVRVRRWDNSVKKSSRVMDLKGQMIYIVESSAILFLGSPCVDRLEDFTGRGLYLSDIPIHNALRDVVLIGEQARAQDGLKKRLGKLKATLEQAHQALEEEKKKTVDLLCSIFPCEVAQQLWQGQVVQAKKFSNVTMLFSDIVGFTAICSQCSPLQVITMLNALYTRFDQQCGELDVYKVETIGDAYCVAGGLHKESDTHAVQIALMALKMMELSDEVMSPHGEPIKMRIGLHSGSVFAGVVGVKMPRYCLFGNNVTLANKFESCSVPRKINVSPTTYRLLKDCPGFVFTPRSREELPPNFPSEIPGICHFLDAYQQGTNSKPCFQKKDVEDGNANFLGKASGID
T2 sequence (Q02153 whole entry): as the sequence (Q02153 whole entry) above
T2 sequence (Q02108 whole entry): as the sequence (Q02108 whole entry) above

## COc1ccccc1-c1cc(-c2ncccn2)nn1Cc1ccccc1F [Compound I-37]
[1]; with 1 μM SNP
  sGC Enzyme (fold increase at 10 μM with SNP): A (A = no increase to <2 fold increase)
  sGC Enzyme (fold increase at 30 μM with SNP): A (A = no increase to <2 fold increase)
[2]
  sGC Enzyme (specific activity at 10 μM): C (C = 100 to <200)
  sGC Enzyme (fold increase at 10 μM without SNP): A (A = no increase to <2 fold increase)
[2]; 30 μM compound
  sGC Enzyme (specific activity at 30 μM): C (C = 100 to <200)
  sGC Enzyme (fold increase at 30 μM without SNP): A (A = no increase to <2 fold increase)

## COc1cccc(-c2cc(-c3ccccn3)nn2Cc2ccccc2F)c1 [Compound I-38]
[1]; with 1 μM SNP
  sGC Enzyme (fold increase at 10 μM with SNP): A (A = no increase to <2 fold increase)
  sGC Enzyme (fold increase at 30 μM with SNP): A (A = no increase to <2 fold increase)
[2]
  sGC Enzyme (specific activity at 10 μM): C (C = 100 to <200)
  sGC Enzyme (fold increase at 10 μM without SNP): A (A = no increase to <2 fold increase)
[2]; 30 μM compound
  sGC Enzyme (specific activity at 30 μM): C (C = 100 to <200)
  sGC Enzyme (fold increase at 30 μM without SNP): A (A = no increase to <2 fold increase)

## Fc1ccccc1Cn1nc(-c2ccccn2)cc1-c1csc2ccccc12 [Compound I-18]
[1]; with 1 μM SNP
  sGC Enzyme (fold increase at 10 μM with SNP): A (A = no increase to <2 fold increase)
  sGC Enzyme (fold increase at 30 μM with SNP): A (A = no increase to <2 fold increase)
[2]
  sGC Enzyme (specific activity at 10 μM): C (C = 100 to <200)
  sGC Enzyme (fold increase at 10 μM without SNP): A (A = no increase to <2 fold increase)
[2]; 30 μM compound
  sGC Enzyme (specific activity at 30 μM): C (C = 100 to <200)
  sGC Enzyme (fold increase at 30 μM without SNP): A (A = no increase to <2 fold increase)

## N#Cc1cnc(-c2cc(-c3ccon3)n(Cc3ccccc3F)n2)nc1N [Compound I-130]
[1]; with the addition of SNP
  sGC Enzyme (fold increase at 30 μM with SNP): D (D = 10 to <30 fold increase)
[2]; 30 μM compound, without the addition of SNP
  sGC Enzyme (fold increase at 30 μM): C (C = 5 to <10 fold increase)

## Cc1ccccc1-c1cc(-c2ccccn2)nn1Cc1ccccc1F [Compound I-24]
[1]; with 1 μM SNP
  sGC Enzyme (fold increase at 10 μM with SNP): A (A = no increase to <2 fold increase)
  sGC Enzyme (fold increase at 30 μM with SNP): A (A = no increase to <2 fold increase)
[2]
  sGC Enzyme (specific activity at 10 μM): C (C = 100 to <200)
  sGC Enzyme (fold increase at 10 μM without SNP): A (A = no increase to <2 fold increase)
[2]; 30 μM compound
  sGC Enzyme (specific activity at 30 μM): C (C = 100 to <200)
  sGC Enzyme (fold increase at 30 μM without SNP): A (A = no increase to <2 fold increase)

## Nc1nc(-c2cc(-c3ccon3)n(Cc3ccccc3F)n2)ncc1NC(=O)c1ccc(F)cc1 [Compound I-168]
[3]
  HEK WC Assay (fold increase at 30 μM in the absence of SNP): E (E = 10 to <20 fold increase)
Thoracic aortic rings
  inhibition at 1 µM: 60 to 80%
  inhibition at 3 µM: 100 to 120%
  inhibition at 10 µM: 100 to 120%
  pEC50: > 5.70
[4]
  HEK WC Assay (fold increase at 30 μM in the presence of 10 μM SNP): G (G = 30 to <40 fold increase)
  pEC50: > 4.70
[4]; [5]
  Emax: 100 to 120%
[4]; [6]
  Emax: 100 to 120%
[4]; [7]
  Emax: 100 to 120%

## Nc1nc(-c2cc(-c3ncco3)n(Cc3ccccc3F)n2)ncc1NC(=O)c1ccccc1 [Compound I-186]
[3]
  HEK WC Assay (fold increase at 30 μM in the absence of SNP): D (D = 5 to <10 fold increase)
Thoracic aortic rings
  inhibition at 1 µM: 60 to 80%
  inhibition at 3 µM: 80 to 100%
  inhibition at 10 µM: 100 to 120%
  pEC50: > 5.70
[4]
  HEK WC Assay (fold increase at 30 μM in the presence of 10 μM SNP): F (F = 20 to <30 fold increase)
  pEC50: > 4.70
[4]; [5]
  Emax: 60 to 80%
[4]; [6]
  Emax: 60 to 80%
[4]; [7]
  Emax: 80 to 100%

## Nc1nc(-c2cc(-c3ccon3)n(Cc3ccccc3F)n2)ncc1Nc1nccs1 [Compound I-178]
[3]
  HEK WC Assay (fold increase at 30 μM in the absence of SNP): E (E = 10 to <20 fold increase)
Thoracic aortic rings
  inhibition at 1 µM: 60 to 80%
  inhibition at 3 µM: 100 to 120%
  inhibition at 10 µM: 100 to 120%
  pEC50: > 5.70
[4]
  HEK WC Assay (fold increase at 30 μM in the presence of 10 μM SNP): E (E = 10 to <20 fold increase)
  pEC50: > 4.70
[4]; [5]
  Emax: 40 to 60%
[4]; [6]
  Emax: 80 to 100%
[4]; [7]
  Emax: 60 to 80%

## CS(=O)(=O)c1cnc(-c2cc(-c3ccon3)n(Cc3ccccc3F)n2)nc1O [Compound I-196]
[3]
  HEK WC Assay (fold increase at 30 μM in the absence of SNP): C (C = 2 to <5 fold increase)
Thoracic aortic rings
  inhibition at 1 µM: 60 to 80%
  inhibition at 3 µM: 80 to 100%
  inhibition at 10 µM: 80 to 100%
  pEC50: > 5.70
[4]
  HEK WC Assay (fold increase at 30 μM in the presence of 10 μM SNP): E (E = 10 to <20 fold increase)
  pEC50: > 4.70
[4]; [5]
  Emax: 20 to 40%
[4]; [6]
  Emax: 60 to 80%
[4]; [7]
  Emax: 80 to 100%

## Nc1nc(-c2cc(-c3ccon3)n(Cc3ccccc3F)n2)ncc1NC(=O)c1ccccc1F [Compound I-172]
[3]
  HEK WC Assay (fold increase at 30 μM in the absence of SNP): E (E = 10 to <20 fold increase)
Thoracic aortic rings
  inhibition at 1 µM: 80 to 100%
  inhibition at 3 µM: 100 to 120%
  inhibition at 10 µM: 100 to 120%
  pEC50: > 5.70
[4]
  HEK WC Assay (fold increase at 30 μM in the presence of 10 μM SNP): E (E = 10 to <20 fold increase)
  pEC50: > 4.70
[4]; [5]
  Emax: 80 to 100%
[4]; [6]
  Emax: 60 to 80%
[4]; [7]
  Emax: 80 to 100%

## Oc1nc(-c2cc(-c3ccon3)n(Cc3ccccc3F)n2)ncc1C(F)(F)F [Compound I-216]
[3]
  HEK WC Assay (fold increase at 30 μM in the absence of SNP): C (C = 2 to <5 fold increase)
Thoracic aortic rings
  inhibition at 1 µM: 40 to 60%
  inhibition at 3 µM: 80 to 100%
  inhibition at 10 µM: 100 to 120%
  pEC50: > 5.70
[4]
  HEK WC Assay (fold increase at 30 μM in the presence of 10 μM SNP): E (E = 10 to <20 fold increase)
  pEC50: > 4.70
[4]; [5]
  Emax: 20 to 40%
[4]; [6]
  Emax: 40 to 60%
[4]; [7]
  Emax: 40 to 60%

## Cc1ccccc1C(=O)Nc1cnc(-c2cc(-c3ccon3)n(Cc3ccccc3F)n2)nc1N [Compound I-184]
[3]
  HEK WC Assay (fold increase at 30 μM in the absence of SNP): E (E = 10 to <20 fold increase)
Thoracic aortic rings
  inhibition at 1 µM: 80 to 100%
  inhibition at 3 µM: 100 to 120%
  pEC50: > 5.70
[4]
  HEK WC Assay (fold increase at 30 μM in the presence of 10 μM SNP): E (E = 10 to <20 fold increase)
  pEC50: > 4.70
[4]; [5]
  Emax: 60 to 80%
[4]; [6]
  Emax: 100 to 120%
[4]; [7]
  Emax: 80 to 100%

## Nc1nc(-c2cc(-c3ccon3)n(Cc3ccccc3F)n2)ncc1NC(=O)c1ccncc1 [Compound I-176]
[3]
  HEK WC Assay (fold increase at 30 μM in the absence of SNP): E (E = 10 to <20 fold increase)
Thoracic aortic rings
  inhibition at 1 µM: 80 to 100%
  inhibition at 3 µM: 100 to 120%
  pEC50: > 5.70
[4]
  HEK WC Assay (fold increase at 30 μM in the presence of 10 μM SNP): E (E = 10 to <20 fold increase)
  pEC50: > 4.70
[4]; [5]
  Emax: 20 to 40%
[4]; [6]
  Emax: 60 to 80%
[4]; [7]
  Emax: 60 to 80%
